Measured values taken from patent EP1336409B1 (priority 1995, dated 1997).

Tested on: mechanical allodynia
Details: rat, in vivo

Row | Substance | Effective intrathecal doses | apparent order of potency for suppression of allodynia | block of mechanical allodynia
1 | [ala^12-SNX-111 [SNX-273] | 0.1 to 0.3 µg | SNX-111 =SNX-273 > SNX-279 | block mechanical allodynia significantly
2 | Met(0)^12-SNX-111 [SNX-279] | 0.1 to 0.3 µg | SNX-111 =SNX-273 > SNX-279 | block mechanical allodynia significantly
